Measurements as given in patent publication US20070225330A1, “USE OF CERTAIN PHENYL-NAPHTHYL COMPOUNDS THAT DO NOT HAVE SIGNIFICANT AFFINITY TO ER ALPHA OR ER BETA FOR PROTECTION OF NEURONS AND OLIGODENDROCYTES IN THE TREATMENT OF MULTIPLE SCLEROSIS” (AVENTIS PHARMACEUTICALS INC., priority 2004, published 2007).

Target: T1, ER α (Homo sapiens, UniProt P03372)
T1 sequence (P03372 1-595): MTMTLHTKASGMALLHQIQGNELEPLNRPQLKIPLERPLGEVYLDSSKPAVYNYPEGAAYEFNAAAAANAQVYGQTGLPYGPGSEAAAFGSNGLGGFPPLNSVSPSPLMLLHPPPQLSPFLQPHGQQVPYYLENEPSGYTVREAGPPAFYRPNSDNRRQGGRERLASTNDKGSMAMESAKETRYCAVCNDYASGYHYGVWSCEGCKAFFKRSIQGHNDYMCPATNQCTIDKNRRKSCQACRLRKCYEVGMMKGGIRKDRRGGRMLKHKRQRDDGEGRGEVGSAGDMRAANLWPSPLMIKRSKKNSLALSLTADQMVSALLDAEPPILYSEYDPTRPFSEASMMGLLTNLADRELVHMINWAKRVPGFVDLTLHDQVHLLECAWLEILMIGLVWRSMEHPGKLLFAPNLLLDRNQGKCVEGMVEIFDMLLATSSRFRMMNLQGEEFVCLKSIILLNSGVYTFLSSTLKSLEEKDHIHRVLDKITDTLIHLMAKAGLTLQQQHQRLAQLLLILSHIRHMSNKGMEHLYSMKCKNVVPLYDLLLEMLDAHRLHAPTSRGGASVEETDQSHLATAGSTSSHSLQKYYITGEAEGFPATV
Assay: Affinity for ER receptors (α)
Assay type: binding
Conditions: unit not given

Row | SMILES | Affinity for ER receptors* α
1 | C[C@@]12CCc3cc(O)ccc3[C@H]1CC[C@@]1(C)[C@H]2CC[C@@H]1O [Compound 11, Estrogen] | 1.17
2 | Oc1ccc(-c2ccc3cc(O)ccc3c2)cc1 [Compound 7, 6-(4-Hydroxy-phenyl)-2-naphthalenol] | 408
3 | Oc1ccc(-c2ccc3cc(O)ccc3c2Cl)cc1 [Compound 4, 5-chloro-6-(4-hydroxyphenyl)-2-naphthalenol] | 35.4

System: Primary rat oligodendrocyte progenitor cells
Assay: Oligodendrocyte toxicity assay (LDH release, protection against toxin-induced toxicity)
Assay type: cell-based
Conditions: Camptothecin 10 μM; compound pretreatment 1 hour; LDH after 24 hours
Protocol: Oligodendrocyte Toxicity Assay
Primary rat oligodendrocyte progenitor cells were obtained from the cerebra of 2-3 day old postnatal rats (Sprague Dawley). The meninges were removed and tissue was mechanically dissociated. Cells were plated on T75 flasks and fed with DMEM+10% FBS.
Enriched OLPs were collected by mechanical separation from the astrocytic monolayer and were expanded in serum free media (SFM) supplemented with the mitogens, PDGF-AA (10 ng/ml) and FGF-2 (10 ng/ml).
To generate mature oligodendrocytes, progenitor cells were switched to SFM supplemented with IGF-1 (10 ng/ml) 24 hours after plating and cells were grown under these conditions for 7 days prior to experimental assays.
Cells were plated in 96-well plates, 10,000 per well. Medium was changed to fresh medium and cells were pretreated with compounds for 1 hour. Toxins were added to give the following final concentrations:
After 24 hours, medium was removed and assayed for LDH activity using the Promega cytotox 96 kit (catalog #G1780). Results were calculated as percent protection against toxin-induced toxicity.

Row | SMILES | Oligodendrocyte progenitor protection against Camptothecin
4 | COc1ccc(-c2sc3cc(O)ccc3c2Oc2ccc(OCCN3CCCCC3)cc2)cc1 [Compound 10, Arzoxifen] | Very effective
5 | C[C@@]12CCc3cc(O)ccc3[C@H]1CC[C@@]1(C)[C@H]2CC[C@@H]1O [Compound 11, Estrogen] | Effective
6 | Oc1ccc(-c2ccc3cc(O)ccc3c2)cc1 [Compound 7, 6-(4-Hydroxy-phenyl)-2-naphthalenol] | Effective
7 | Oc1ccc(-c2ccc3cc(O)ccc3c2Cl)cc1 [Compound 4, 5-chloro-6-(4-hydroxyphenyl)-2-naphthalenol] | Effective

Same assay, conditions: SIN-1 10 mM; compound pretreatment 1 hour; LDH after 24 hours

Row | SMILES | Oligodendrocyte progenitor protection against SIN-1
8 | COc1ccc(-c2sc3cc(O)ccc3c2Oc2ccc(OCCN3CCCCC3)cc2)cc1 [Compound 10, Arzoxifen] | Very effective
9 | C[C@@]12CCc3cc(O)ccc3[C@H]1CC[C@@]1(C)[C@H]2CC[C@@H]1O [Compound 11, Estrogen] | Effective
10 | Oc1ccc(-c2ccc3cc(O)ccc3c2)cc1 [Compound 7, 6-(4-Hydroxy-phenyl)-2-naphthalenol] | Effective
11 | Oc1ccc(-c2ccc3cc(O)ccc3c2Cl)cc1 [Compound 4, 5-chloro-6-(4-hydroxyphenyl)-2-naphthalenol] | Effective

Target: ER β (Homo sapiens, UniProt Q92731)
Sequence (Q92731 whole entry): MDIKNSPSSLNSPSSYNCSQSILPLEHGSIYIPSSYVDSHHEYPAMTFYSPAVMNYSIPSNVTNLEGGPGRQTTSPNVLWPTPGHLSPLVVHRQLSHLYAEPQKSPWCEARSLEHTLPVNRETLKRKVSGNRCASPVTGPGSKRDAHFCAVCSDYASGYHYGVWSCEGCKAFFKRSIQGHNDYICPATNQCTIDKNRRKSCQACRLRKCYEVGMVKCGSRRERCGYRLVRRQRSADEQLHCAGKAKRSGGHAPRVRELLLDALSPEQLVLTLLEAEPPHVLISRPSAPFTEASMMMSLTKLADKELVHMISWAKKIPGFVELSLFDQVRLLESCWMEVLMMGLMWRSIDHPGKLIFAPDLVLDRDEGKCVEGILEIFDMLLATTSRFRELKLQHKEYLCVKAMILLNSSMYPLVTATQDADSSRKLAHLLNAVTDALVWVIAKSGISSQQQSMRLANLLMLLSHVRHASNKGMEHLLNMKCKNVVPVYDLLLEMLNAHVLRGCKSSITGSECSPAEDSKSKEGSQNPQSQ
Assay: Affinity for ER receptors (β)
Assay type: binding
Conditions: unit not given

Row | SMILES | Affinity for ER receptors* β
12 | C[C@@]12CCc3cc(O)ccc3[C@H]1CC[C@@]1(C)[C@H]2CC[C@@H]1O [Compound 11, Estrogen] | 6.1
13 | Oc1ccc(-c2ccc3cc(O)ccc3c2)cc1 [Compound 7, 6-(4-Hydroxy-phenyl)-2-naphthalenol] | 14.7
14 | Oc1ccc(-c2ccc3cc(O)ccc3c2Cl)cc1 [Compound 4, 5-chloro-6-(4-hydroxyphenyl)-2-naphthalenol] | 3
